In the NIST ThermoML archive (doi:10.1016/j.fluid.2006.12.011):
Numbers after ± are expanded uncertainties.

Legend:
[1] = Liquid, Vibrating tube method
[2] = xn = mol fraction of the nth substance listed; conditions: Liquid, Vibrating tube method, x2 = 0

C1CC[C@H]2CCCC[C@H]2C1 [cis-decahydronaphthalene]
mass density [kg/m3], [1]
Conditions	303.15 K	323.15 K	343.15 K
100 kPa	888.5 ± 1.2	873.2 ± 1.2	857.8 ± 1.2
5000 kPa	891.4 ± 1.2	876.5 ± 1.2	861.5 ± 1.2
10000 kPa	894.4 ± 1.2	879.8 ± 1.2	865.1 ± 1.2
15000 kPa	897.3 ± 1.2	883 ± 1.2	868.6 ± 1.2
20000 kPa	899.9 ± 1.2	886 ± 1.2	871.9 ± 1.2
25000 kPa	902.8 ± 1.3	889 ± 1.3	875.1 ± 1.3
30000 kPa	905.5 ± 1.3	891.8 ± 1.3	878.3 ± 1.3
35000 kPa	908 ± 1.3	894.6 ± 1.3	881.2 ± 1.3
40000 kPa	910.6 ± 1.3	897.3 ± 1.3	884.1 ± 1.3
45000 kPa	913 ± 1.3	899.9 ± 1.3	887 ± 1.3
50000 kPa	915.3 ± 1.3	902.4 ± 1.3	889.7 ± 1.3
55000 kPa	917.6 ± 1.3	904.8 ± 1.3	892.3 ± 1.3
60000 kPa	919.9 ± 1.3	907.3 ± 1.3	894.9 ± 1.3
65000 kPa	922.1 ± 1.3	909.6 ± 1.3	897.4 ± 1.3

C1CC[C@H]2CCCC[C@@H]2C1 [trans-decahydronaphthalene]
mass density [kg/m3], [1]
Conditions	303.15 K	323.15 K	343.15 K
100 kPa	862.1 ± 1	847.1 ± 1	832 ± 1
5000 kPa	865.4 ± 1	850.9 ± 1	836.2 ± 1
10000 kPa	868.7 ± 1	854.4 ± 1	840.1 ± 1
15000 kPa	871.6 ± 1	857.8 ± 1	843.9 ± 1
20000 kPa	874.6 ± 1	861 ± 1	847.4 ± 1.1
25000 kPa	877.6 ± 1.1	864.1 ± 1.1	850.8 ± 1.1
30000 kPa	880.3 ± 1.1	867.1 ± 1.1	854.1 ± 1.1
35000 kPa	882.9 ± 1.1	870 ± 1.1	857.2 ± 1.1
40000 kPa	885.6 ± 1.1	872.8 ± 1.1	860.3 ± 1.1
45000 kPa	888.2 ± 1.1	875.6 ± 1.1	863.2 ± 1.1
50000 kPa	890.6 ± 1.1	878.3 ± 1.1	866.1 ± 1.1
55000 kPa	893 ± 1.1	880.8 ± 1.1	868.8 ± 1.1
60000 kPa	895.3 ± 1.1	883.4 ± 1.1	871.5 ± 1.1
65000 kPa	897.6 ± 1.1	885.8 ± 1.1	874.2 ± 1.1

C1CC[C@H]2CCCC[C@@H]2C1 [trans-decahydronaphthalene] + C1CC[C@H]2CCCC[C@H]2C1
mass density [kg/m3], [2]
Conditions	303.15 K	323.15 K	343.15 K
100 kPa	862.1 ± 1	847.1 ± 1	832 ± 1
5000 kPa	865.4 ± 1	850.9 ± 1	836.2 ± 1
10000 kPa	868.7 ± 1	854.4 ± 1	840.1 ± 1
15000 kPa	871.6 ± 1	857.8 ± 1	843.9 ± 1
20000 kPa	874.6 ± 1	861 ± 1	847.4 ± 1.1
25000 kPa	877.6 ± 1.1	864.1 ± 1.1	850.8 ± 1.1
30000 kPa	880.3 ± 1.1	867.1 ± 1.1	854.1 ± 1.1
35000 kPa	882.9 ± 1.1	870 ± 1.1	857.2 ± 1.1
40000 kPa	885.6 ± 1.1	872.8 ± 1.1	860.3 ± 1.1
45000 kPa	888.2 ± 1.1	875.6 ± 1.1	863.2 ± 1.1
50000 kPa	890.6 ± 1.1	878.3 ± 1.1	866.1 ± 1.1
55000 kPa	893 ± 1.1	880.8 ± 1.1	868.8 ± 1.1
60000 kPa	895.3 ± 1.1	883.4 ± 1.1	871.5 ± 1.1
65000 kPa	897.6 ± 1.1	885.8 ± 1.1	874.2 ± 1.1
